Data as given in the supplement of paper PMC10307832.

Legend:
Test in all cases: relative viability (nuclei count vs DMSO), 5 days (fraction); higher = more cells survive
LCLC-103H = tested on: LCLC-103H
How it was run: (§1)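 Lung cancer cell lines in 1536-well plates were dosed by pin tool the day after seeding, either with one drug alone or with a fixed anchor-drug dose plus five library-drug doses (not always all listed) in √10 steps. After 5 days, cells were fixed and their nuclei stained in one step (final 0.05% Triton X-100, 1% formaldehyde, 1 ug/ml Hoechst), then counted on 4× images. Relative viability is the nuclei count in treated wells divided by that in vehicle wells. Values are medians of duplicate plates.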

COR-L 105 = tested on: COR-L 105
How it was run: as §1

NCI-H522 = tested on: NCI-H522
How it was run: as §1

NCI-H1915 = tested on: NCI-H1915
How it was run: as §1

H3255 = tested on: H3255
How it was run: as §1

NCI-H2087 = tested on: NCI-H2087
How it was run: as §1

NCI-H520 = tested on: NCI-H520
How it was run: as §1

NCI-H2170 = tested on: NCI-H2170
How it was run: as §1

A-427 = tested on: A-427
How it was run: as §1

SK-MES-1 = tested on: SK-MES-1
How it was run: as §1

SW 1573 = tested on: SW 1573
How it was run: as §1

HCC-827 = tested on: HCC-827
How it was run: as §1

NCI-H2023 = tested on: NCI-H2023
How it was run: as §1

NCI-H1793 = tested on: NCI-H1793
How it was run: as §1

NCI-H358 = tested on: NCI-H358
How it was run: as §1

NCI-H1993 = tested on: NCI-H1993
How it was run: as §1

NCI-H1975 = tested on: NCI-H1975
How it was run: as §1

NCI-H1792 = tested on: NCI-H1792
How it was run: as §1

NCI-H1944 = tested on: NCI-H1944
How it was run: as §1

LOU-NH91 = tested on: LOU-NH91
How it was run: as §1

HCC-44 = tested on: HCC-44
How it was run: as §1

LXF-289 = tested on: LXF-289
How it was run: as §1

SW 900 = tested on: SW 900
How it was run: as §1

CN1CCN(CCOc2cc(OC3CCOCC3)c3c(Nc4c(Cl)ccc5c4OCO5)ncnc3c2)CC1 [Saracatinib] + N=C(N)NC(=N)NCCc1ccccc1 [Phenformin] (partner 250 µM)
relative viability (LCLC-103H; first compound 0.02 µM): 0.337 | relative viability (LCLC-103H; first compound 0.2 µM): 0.354 | relative viability (LCLC-103H; first compound 0.6325 µM): 0.37 | relative viability (LCLC-103H; first compound 2 µM): 0.314 | relative viability (COR-L 105; first compound 0.02 µM): 0.586 | relative viability (COR-L 105; first compound 0.2 µM): 0.532 | relative viability (COR-L 105; first compound 0.6325 µM): 0.438 | relative viability (COR-L 105; first compound 2 µM): 0.256 | relative viability (NCI-H522; first compound 0.02 µM): 0.553 | relative viability (NCI-H522; first compound 0.6325 µM): 0.639 | relative viability (NCI-H522; first compound 2 µM): 0.612 | relative viability (NCI-H1915; first compound 0.02 µM): 0.374 | relative viability (NCI-H1915; first compound 0.2 µM): 0.333 | relative viability (NCI-H1915; first compound 0.6325 µM): 0.364 | relative viability (NCI-H1915; first compound 2 µM): 0.333 | relative viability (H3255; first compound 0.02 µM): 0.354 | relative viability (H3255; first compound 0.2 µM): 0.33 | relative viability (H3255; first compound 0.6325 µM): 0.254 | relative viability (H3255; first compound 2 µM): 0.251 | relative viability (NCI-H2087; first compound 0.02 µM): 0.484 | relative viability (NCI-H2087; first compound 0.2 µM): 0.39 | relative viability (NCI-H2087; first compound 0.6325 µM): 0.468 | relative viability (NCI-H2087; first compound 2 µM): 0.355 | relative viability (NCI-H520; first compound 0.02 µM): 0.687 | relative viability (NCI-H520; first compound 0.6325 µM): 0.441 | relative viability (NCI-H520; first compound 2 µM): 0.291 | relative viability (NCI-H2170; first compound 0.02 µM): 0.396 | relative viability (NCI-H2170; first compound 0.2 µM): 0.332 | relative viability (NCI-H2170; first compound 0.6325 µM): 0.352 | relative viability (NCI-H2170; first compound 2 µM): 0.295 | relative viability (A-427; first compound 0.02 µM): 0.352 | relative viability (A-427; first compound 0.2 µM): 0.273 | relative viability (A-427; first compound 0.6325 µM): 0.281 | relative viability (A-427; first compound 2 µM): 0.285 | relative viability (SK-MES-1; first compound 0.02 µM): 0.65 | relative viability (SK-MES-1; first compound 0.2 µM): 0.613 | relative viability (SK-MES-1; first compound 0.6325 µM): 0.613 | relative viability (SK-MES-1; first compound 2 µM): 0.634 | relative viability (SW 1573; first compound 0.02 µM): 0.537 | relative viability (SW 1573; first compound 0.2 µM): 0.382 | relative viability (SW 1573; first compound 0.6325 µM): 0.313 | relative viability (SW 1573; first compound 2 µM): 0.313 | relative viability (HCC-827; first compound 0.02 µM): 0.4 | relative viability (HCC-827; first compound 0.2 µM): 0.221 | relative viability (HCC-827; first compound 0.6325 µM): 0.134 | relative viability (HCC-827; first compound 2 µM): 0.144 | relative viability (NCI-H2023; first compound 0.02 µM): 0.448 | relative viability (NCI-H2023; first compound 0.2 µM): 0.303 | relative viability (NCI-H2023; first compound 0.6325 µM): 0.236 | relative viability (NCI-H2023; first compound 2 µM): 0.257 | relative viability (NCI-H1793; first compound 0.02 µM): 0.439 | relative viability (NCI-H1793; first compound 0.6325 µM): 0.308 | relative viability (NCI-H1793; first compound 2 µM): 0.263 | relative viability (NCI-H358; first compound 0.02 µM): 0.37 | relative viability (NCI-H358; first compound 0.2 µM): 0.298 | relative viability (NCI-H358; first compound 0.6325 µM): 0.23 | relative viability (NCI-H358; first compound 2 µM): 0.171 | relative viability (NCI-H1993; first compound 0.02 µM): 0.524 | relative viability (NCI-H1993; first compound 0.2 µM): 0.529 | relative viability (NCI-H1993; first compound 0.6325 µM): 0.512 | relative viability (NCI-H1993; first compound 2 µM): 0.555 | relative viability (NCI-H1975; first compound 0.02 µM): 0.422 | relative viability (NCI-H1975; first compound 0.2 µM): 0.348 | relative viability (NCI-H1975; first compound 0.6325 µM): 0.387 | relative viability (NCI-H1975; first compound 2 µM): 0.32 | relative viability (NCI-H1792; first compound 0.02 µM): 0.258 | relative viability (NCI-H1792; first compound 0.2 µM): 0.167 | relative viability (NCI-H1792; first compound 0.6325 µM): 0.241 | relative viability (NCI-H1792; first compound 2 µM): 0.405 | relative viability (NCI-H1944; first compound 0.02 µM): 0.227 | relative viability (NCI-H1944; first compound 0.6325 µM): 0.161 | relative viability (NCI-H1944; first compound 2 µM): 0.141 | relative viability (LOU-NH91; first compound 0.02 µM): 0.648 | relative viability (LOU-NH91; first compound 0.2 µM): 0.47 | relative viability (LOU-NH91; first compound 0.6325 µM): 0.553 | relative viability (LOU-NH91; first compound 2 µM): 0.403 | relative viability (HCC-44; first compound 0.02 µM): 0.316 | relative viability (HCC-44; first compound 0.2 µM): 0.227 | relative viability (HCC-44; first compound 0.6325 µM): 0.333 | relative viability (HCC-44; first compound 2 µM): 0.199 | relative viability (LXF-289; first compound 0.02 µM): 0.546 | relative viability (LXF-289; first compound 0.2 µM): 0.486 | relative viability (LXF-289; first compound 0.6325 µM): 0.506 | relative viability (LXF-289; first compound 2 µM): 0.458 | relative viability (SW 900; first compound 0.02 µM): 0.756 | relative viability (SW 900; first compound 0.2 µM): 0.36 | relative viability (SW 900; first compound 0.6325 µM): 0.493 | relative viability (SW 900; first compound 2 µM): 0.47
